Molecular target: T1, GST fusion protein containing the Met kinase domain (Homo sapiens, UniProt P08581)
T1 construct: Purified GST fusion protein containing the Met kinase domain, Sugen, Inc
Test: MET Transphosphorylation Assay (ELISA, poly(Glu,Tyr) 4:1 substrate)
Assay type: biochemical
Details: met transphosphorylation of poly(glutamic acid:tyrosine 4:1) substrate; two values in a cell separated by '/'
Outline: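 Poly(Glu-Tyr)-coated wells received the GST-Met kinase domain (10 ng/well) with compound in DMSO for 15 minutes. The reaction was started with ATP/MnCl2 in HEPES pH 7.5 buffer with vanadate, run 5 minutes, and stopped with EDTA. Phosphotyrosine was detected by anti-pTyr antibody, HRP secondary and ABTS/H2O2.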

T1 sequence (P08581 1078-1345 limits assumed): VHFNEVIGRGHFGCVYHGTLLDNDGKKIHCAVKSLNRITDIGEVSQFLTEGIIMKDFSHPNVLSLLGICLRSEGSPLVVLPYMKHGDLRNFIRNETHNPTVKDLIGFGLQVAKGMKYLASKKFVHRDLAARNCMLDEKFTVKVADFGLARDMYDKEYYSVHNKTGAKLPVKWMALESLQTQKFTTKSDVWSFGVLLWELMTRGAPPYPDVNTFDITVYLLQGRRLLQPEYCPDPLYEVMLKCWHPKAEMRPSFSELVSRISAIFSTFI

(3-Chloro-4-hydroxy-phenyl)-acetic acid [(3Z)-4,7-dimethyl-2-oxo-1,2-dihydro-indol-3-ylidene]-hydrazide [II-48]
IC50: 20 nM

From patent US20060009493A1, “Indolinone hydrazides as c-Met inhibitors” (Sugen, Inc., priority 2003, published 2006)
